This is an account of results in patent US20230059463A1, “3-(2-BROMO-4-ALKYNYL-6-ALKOXYPHENYL)-SUBSTITUTED 5-SPIROCYCLOHEXYL-3-PYRROLIN-2-ONES AND THEIR USE AS HERBICIDES” (Bayer Aktiengesellschaft, priority 2019, published 2023).

Format in all cases: in vivo
Test [1] has as its system Alopecurus myosuroides. The test can be described thus: Post-emergence herbicidal effect. Particulars: 80 g/ha, post-emergence at one-leaf stage, assessed visually after about 3 weeks; 100% = plants have died, 0% = like control plants. The protocol: (§1) Seeds of monocotyledonous and dicotyledonous weed and crop plants are laid out in sandy loam soil in wood-fiber pots, covered with soil and cultivated in a greenhouse under good growth conditions. 2 to 3 weeks after sowing, the test plants are treated at the one-leaf stage. The compounds of the invention, formulated in the form of wettable powders (WP) or as emulsion concentrates (EC), are then sprayed onto the green parts of the plants as aqueous suspension or emulsion at a water application rate equating to 600 to 800 l/ha with addition of 0.2% wetting agent. After the test plants have been left to stand in the greenhouse under optimal growth conditions for about 3 weeks, the action of the preparations is assessed visually in comparison to untreated controls (herbicidal action in per cent (%): 100% activity=the plants have died, 0% activity=like control plants).

For test [2], the system named is Lolium rigidum. Kind of test: Post-emergence herbicidal effect. The settings on record: 80 g/ha, post-emergence at one-leaf stage, assessed visually after about 3 weeks; 100% = plants have died, 0% = like control plants. How it is done:
as §1

Test [3] has as its system Setaria viridis. The test can be described thus: Post-emergence herbicidal effect. Particulars: 80 g/ha, post-emergence at one-leaf stage, assessed visually after about 3 weeks; 100% = plants have died, 0% = like control plants. The protocol:
as §1

Test [4] relates to Hordeum murinum. Kind of test: Post-emergence herbicidal effect. The settings on record: 80 g/ha, post-emergence at one-leaf stage, assessed visually after about 3 weeks; 100% = plants have died, 0% = like control plants. How it is done:
as §1

The test system of test [5] is Echinochloa crus-galli. Kind of test: Post-emergence herbicidal effect. Particulars: 80 g/ha, post-emergence at one-leaf stage, assessed visually after about 3 weeks; 100% = plants have died, 0% = like control plants. How it is done:
as §1

The subject of another test is Avena fatua. Kind of test: Pre-emergence herbicidal effect. Particulars: 80 g/ha, scored visually after 3 weeks, 100% = plants have died, 0% = like control plants. The source says:
(§2) Seeds of monocotyledonous and dicotyledonous weed plants and crop plants are laid out in sandy loam soil in wood-fiber pots and covered with soil. The compounds of the invention, formulated in the form of wettable powders (WP) or as emulsion concentrates (EC), are then applied to the surface of the covering soil as aqueous suspension or emulsion at a water application rate equating to 600 to 800 L/ha with addition of 0.2% wetting agent.
(§3) After the treatment, the pots are placed in a greenhouse and kept under good growth conditions for the trial plants. The damage to the test plants is scored visually after a test period of 3 weeks by comparison with untreated controls (herbicidal activity in percent (%): 100% activity=the plants have died, 0% activity=like control plants).

For test [6], the system named is Alopecurus myosuroides. Kind of test: Pre-emergence herbicidal effect. The settings on record: 80 g/ha, scored visually after 3 weeks, 100% = plants have died, 0% = like control plants.
Description: as §2, §3

In test [7] the test system is Lolium rigidum. Kind of test: Pre-emergence herbicidal effect. Particulars: 80 g/ha, scored visually after 3 weeks, 100% = plants have died, 0% = like control plants.
Description: as §2, §3

The test system of test [8] is Setaria viridis. The test can be described thus: Pre-emergence herbicidal effect. Particulars: 80 g/ha, scored visually after 3 weeks, 100% = plants have died, 0% = like control plants.
Description: as §2, §3

Test [9] relates to Hordeum murinum. The test can be described thus: Pre-emergence herbicidal effect. Particulars: 80 g/ha, scored visually after 3 weeks, 100% = plants have died, 0% = like control plants.
Description: as §2, §3

For test [10], the system named is Echinochloa crus-galli. The test can be described thus: Pre-emergence herbicidal effect. Particulars: 80 g/ha, scored visually after 3 weeks, 100% = plants have died, 0% = like control plants.
Description: as §2, §3

The next test concerns Digitaria sanguinalis. Kind of test: Post-emergence herbicidal effect. Particulars: 80 g/ha, post-emergence at one-leaf stage, assessed visually after about 3 weeks; 100% = plants have died, 0% = like control plants. How it is done: as §1

As to `CC#Cc1cc(Br)c(C2=C([O-])C3(CCCC(OCCOC)C3)NC2=O)c(OC)c1.[Na+]` (centres unmarked) [Example 1.1.14], the “Post-emergence action against ALOMY (herbicidal action in per cent)” value with Alopecurus myosuroides [1] is given as 80%. In the test on Lolium rigidum [2], the “Post-emergence action against LOLRI (herbicidal action in per cent)” value came to 90%. Further, the “Post-emergence action against SETVI (herbicidal action in per cent)” value in the test on Setaria viridis [3] stood at 90%. Also, the “Post-emergence action against HORMU (herbicidal action in per cent)” value with Hordeum murinum [4] amounted to 80%. Moreover, in the test on Echinochloa crus-galli [5], the “Post-emergence action against ECHCG (herbicidal action in per cent)” value was determined as 90%. Besides, in the test on Avena fatua, the “Pre-emergence action against AVEFA (herbicidal activity in percent)” value was determined as 100%. For the same compound, the “Pre-emergence action against ALOMY (herbicidal activity in percent)” value in the test on Alopecurus myosuroides [6] is on record as 100%. The “Pre-emergence action against LOLRI (herbicidal activity in percent)” value in the test with Lolium rigidum [7] is 100%. Also, the “Pre-emergence action against SETVI (herbicidal activity in percent)” value with Setaria viridis [8] was 100%. In addition, the “Pre-emergence action against HORMU (herbicidal activity in percent)” value in the test with Hordeum murinum [9] was 100%. In addition, the “Pre-emergence action against ECHCG (herbicidal activity in percent)” value in the test with Echinochloa crus-galli [10] stood at 100%.
Take `CC#Cc1cc(Br)c(C2=C(OC(=O)C(C)C)C3(CCCC(OCCOC)C3)NC2=O)c(OC)c1` (centres unmarked) [Example 1.1.16]: the “Post-emergence action against ALOMY (herbicidal action in per cent)” value in the test on Alopecurus myosuroides [1] worked out at 100%. In the test on Lolium rigidum [2], the “Post-emergence action against LOLRI (herbicidal action in per cent)” value is 100%. The “Post-emergence action against SETVI (herbicidal action in per cent)” value in the test with Setaria viridis [3] was 100%. Besides, the “Post-emergence action against HORMU (herbicidal action in per cent)” value in the test on Hordeum murinum [4] came to 100%. Also, the “Post-emergence action against ECHCG (herbicidal action in per cent)” value in the test with Echinochloa crus-galli [5] was determined as 100%. Also, the “Pre-emergence action against AVEFA (herbicidal activity in percent)” value in the test on Avena fatua worked out at 100%. In addition, in the test with Alopecurus myosuroides [6], the “Pre-emergence action against ALOMY (herbicidal activity in percent)” value came out at 100%. In the test with Lolium rigidum [7], the “Pre-emergence action against LOLRI (herbicidal activity in percent)” value stood at 100%. For the same compound, the “Pre-emergence action against SETVI (herbicidal activity in percent)” value in the test on Setaria viridis [8] came out at 100%. For the same compound, the “Pre-emergence action against HORMU (herbicidal activity in percent)” value in the test with Hordeum murinum [9] stood at 100%. Moreover, the “Pre-emergence action against ECHCG (herbicidal activity in percent)” value in the test on Echinochloa crus-galli [10] is 100%.
Take `CC#Cc1cc(Br)c(C2=C(OC(=O)OCC)C3(CCCC(OCCOC)C3)NC2=O)c(OC)c1` (centres unmarked) [Example 1.1.15]: the “Post-emergence action against ALOMY (herbicidal action in per cent)” value in the test on Alopecurus myosuroides [1] amounted to 100%. Also, the “Post-emergence action against LOLRI (herbicidal action in per cent)” value with Lolium rigidum [2] stood at 100%. In the test on Setaria viridis [3], the “Post-emergence action against SETVI (herbicidal action in per cent)” value was determined as 100%. Also, in the test with Hordeum murinum [4], the “Post-emergence action against HORMU (herbicidal action in per cent)” value is given as 100%. In the test with Echinochloa crus-galli [5], the “Post-emergence action against ECHCG (herbicidal action in per cent)” value is listed as 100%. The “Pre-emergence action against AVEFA (herbicidal activity in percent)” value in the test with Avena fatua came to 100%. Moreover, the “Pre-emergence action against ALOMY (herbicidal activity in percent)” value in the test on Alopecurus myosuroides [6] is given as 100%. For the same compound, the “Pre-emergence action against LOLRI (herbicidal activity in percent)” value in the test on Lolium rigidum [7] is 100%. Also, the “Pre-emergence action against SETVI (herbicidal activity in percent)” value in the test with Setaria viridis [8] is listed as 100%. In the test on Hordeum murinum [9], the “Pre-emergence action against HORMU (herbicidal activity in percent)” value is 100%. For the same compound, the “Pre-emergence action against ECHCG (herbicidal activity in percent)” value in the test on Echinochloa crus-galli [10] was determined as 100%.
Regarding `CC#Cc1cc(Br)c(C2=C([O-])C3(CCCC(OCCOC)C3)NC2=O)c(OCC)c1.[Na+]` (centres unmarked) [Example 1.1.18], in the test with Alopecurus myosuroides [1], the “Post-emergence action against ALOMY (herbicidal action in per cent)” value came out at 100%. Also, in the test on Lolium rigidum [2], the “Post-emergence action against LOLRI (herbicidal action in per cent)” value is recorded as 100%. The “Post-emergence action against SETVI (herbicidal action in per cent)” value with Setaria viridis [3] is listed as 100%. The “Post-emergence action against DIGSA (herbicidal action in per cent)” value with Digitaria sanguinalis is 100%. Besides, in the test on Hordeum murinum [4], the “Post-emergence action against HORMU (herbicidal action in per cent)” value came to 100%. Also, in the test with Echinochloa crus-galli [5], the “Post-emergence action against ECHCG (herbicidal action in per cent)” value is recorded as 100%.
As to `CC#Cc1cc(Br)c(C2=C(O)C3(CCCC(OCCC)C3)NC2=O)c(OC)c1` (centres unmarked) [Example 1.1.09, 3-[2-Bromo-6-methoxy-4-(prop-1-yn-1-yl)phenyl]-7-propoxy-1-azaspiro[4.5]decane-2,4-dione], the “Post-emergence action against ALOMY (herbicidal action in per cent)” value with Alopecurus myosuroides [1] came out at 90%. For the same compound, the “Post-emergence action against LOLRI (herbicidal action in per cent)” value in the test with Lolium rigidum [2] was determined as 90%. Besides, the “Post-emergence action against SETVI (herbicidal action in per cent)” value in the test on Setaria viridis [3] is listed as 90%. The “Post-emergence action against HORMU (herbicidal action in per cent)” value in the test with Hordeum murinum [4] is given as 100%. Besides, the “Post-emergence action against ECHCG (herbicidal action in per cent)” value with Echinochloa crus-galli [5] is reported as 90%. Besides, the “Pre-emergence action against AVEFA (herbicidal activity in percent)” value in the test on Avena fatua is 100%. Besides, in the test with Alopecurus myosuroides [6], the “Pre-emergence action against ALOMY (herbicidal activity in percent)” value is recorded as 100%. The “Pre-emergence action against LOLRI (herbicidal activity in percent)” value in the test on Lolium rigidum [7] is recorded as 100%. Besides, the “Pre-emergence action against SETVI (herbicidal activity in percent)” value in the test on Setaria viridis [8] was 100%. Moreover, the “Pre-emergence action against HORMU (herbicidal activity in percent)” value with Hordeum murinum [9] amounted to 100%. Moreover, in the test with Echinochloa crus-galli [10], the “Pre-emergence action against ECHCG (herbicidal activity in percent)” value was found to be 100%.
